# Target: POLRMT (Homo sapiens (Human), UniProt O00411)
# Test: POLRMT homogeneous TR-FRET mitochondrial transcription assay
# Type: biochemical
# Details: inhibition of POLRMT; TR-FRET detection of 407 bp RNA transcript; 7.5 nM POLRMT, 15 nM TFB2M, 30 nM TFAM, 60 minutes at 37° C.
# Description: The inhibitory activity of the compounds of the present invention against POLRMT were determined by assays based on Bergbrede, T., et al., “An adaptable high-throughput technology enabling the identification of specific transcription modulators,” SLAC Discov., 22, 378-386 (2017).
# The ability of some compounds of the present invention to inhibit POLRMT were determined in a homogeneous TR-FRET Assay using high-throughput screening in a 384-well plate format. This method is used to monitor the activity of mitochondrial transcription through measurement of its product, a 407 bp long RNA transcript. Detection of the product is facilitated by hybridization of two DNA-oligonucleotide probes to specific and adjacent sequences within the RNA product sequence. Upon annealing of the probes, two fluorophores are coupled directly to an acceptor nucleotide probe (ATTO647, 5′), or introduced via a coupled streptavidin with a biotinylated donor nucleotide probe (Europium cryptate) that is brought into sufficient proximity to serve as a fluorescence-donor-acceptor pair. Thus, a FRET signal at 665 nm is generated upon excitation at 340 nm.
# Proteins used as transcription factors (POLRMT: NP_005026.3, TFAM: NP_003192.1, TFB2M: NP_071761.1) are diluted from their stocks to working concentrations of 1 μM, 20 μM and 4 μM respectively, in a dilution buffer containing 20 mM Tris-HCl (pH 8.0), 200 mM NaCl, 10% (v/v) glycerol, 1 mM Dithiothreitol (DTT), 0.5 mM EDTA.
# DNA template is a pUC18 plasmid with the mitochondrial light strand promotor sequence (1-477) cloned between HindIII and BamHI sites. The DNA template is restriction linearized proximal to the promotor 3′-end (pUC-LSP).
# The reaction mixture (10 uL) containing 7.5 nM POLRMT, 15 nM of TFB2M, 30 nM of TFAM, 0.5 nM of DNA template and 500 μM nucleotide triphosphate mix (NTPs) in a reaction buffer (containing 10 mM Tris-HCl (pH 7.5), 10 mM MgCl2, 40 mM NaCl, 10 mM DTT, 0.005% (w/v) Tween-20, 160 units/ml Rnase inhibitor and 0.1 mg/mL BSA) are dispensed to compounds in microplates, using a Thermo Multidrop® dispenser, and incubated at 37° C. in a VWR INCU-Line incubator for 60 minutes after mixing. No nucleotide triphosphate mix is added to negative control samples. Microplates with compounds to be tested in the assay are prepared from 10 mM compound stocks in 100% DMSO, equal amounts of DMSO without any compound are added to positive control and negative control samples.
# During the incubation, a mix of the detection reagents is prepared in a buffer such that the enzymatic reaction is terminated due to chelating of Mg-ions and increased ionic strength, containing 50 mM Tris-HCl (pH 7.5), 700 mM NaCl, 20 mM EDTA, and 0.01% (w/v) Tween-20. Europium-streptavidin is pre-incubated with a 200-fold molar excess of a random sequence oligonucleotide to block unspecific binding of oligo, for two hours at ambient temperature in the dark. Afterwards, the blocked Europium-streptavidin is kept on ice until use.
# At the end of the enzymatic reaction time, 5 μL detection oligo mix in the detection buffer is added, and assay plates are mixed and kept at ambient temperature for one hour, protected from light. The concentration of the Acceptor nucleotide oligo (e.g., ATTO647N-5′-[…]-3′) and Donor nucleotide oligo (e.g., bio-5′-AACACATCTCT(-bio)GCCAAACCCCA-bio-3′) in each assay well is 1 nM, and 3 nM, respectively.
# After incubation with oligo mix, 5 μL of pre-blocked Europium-streptavidin reagent is dispensed to each assay well, assay plates are again mixed and kept at ambient temperature for one hour, protected from light.
# The generated signal is measured with BMG Pherastar microtiter plate reader with a TRF light unit, using excitation at 340 nm, an integration time of 200 μs, and a delay time of 100 μs, before detection at 620 nm and 665 nm. The ratio of donor- and acceptor-fluorescence is used as a measure of the generated transcript product (i.e. enzymatic activity).
# POLRMT, sequence (O00411 42-1230): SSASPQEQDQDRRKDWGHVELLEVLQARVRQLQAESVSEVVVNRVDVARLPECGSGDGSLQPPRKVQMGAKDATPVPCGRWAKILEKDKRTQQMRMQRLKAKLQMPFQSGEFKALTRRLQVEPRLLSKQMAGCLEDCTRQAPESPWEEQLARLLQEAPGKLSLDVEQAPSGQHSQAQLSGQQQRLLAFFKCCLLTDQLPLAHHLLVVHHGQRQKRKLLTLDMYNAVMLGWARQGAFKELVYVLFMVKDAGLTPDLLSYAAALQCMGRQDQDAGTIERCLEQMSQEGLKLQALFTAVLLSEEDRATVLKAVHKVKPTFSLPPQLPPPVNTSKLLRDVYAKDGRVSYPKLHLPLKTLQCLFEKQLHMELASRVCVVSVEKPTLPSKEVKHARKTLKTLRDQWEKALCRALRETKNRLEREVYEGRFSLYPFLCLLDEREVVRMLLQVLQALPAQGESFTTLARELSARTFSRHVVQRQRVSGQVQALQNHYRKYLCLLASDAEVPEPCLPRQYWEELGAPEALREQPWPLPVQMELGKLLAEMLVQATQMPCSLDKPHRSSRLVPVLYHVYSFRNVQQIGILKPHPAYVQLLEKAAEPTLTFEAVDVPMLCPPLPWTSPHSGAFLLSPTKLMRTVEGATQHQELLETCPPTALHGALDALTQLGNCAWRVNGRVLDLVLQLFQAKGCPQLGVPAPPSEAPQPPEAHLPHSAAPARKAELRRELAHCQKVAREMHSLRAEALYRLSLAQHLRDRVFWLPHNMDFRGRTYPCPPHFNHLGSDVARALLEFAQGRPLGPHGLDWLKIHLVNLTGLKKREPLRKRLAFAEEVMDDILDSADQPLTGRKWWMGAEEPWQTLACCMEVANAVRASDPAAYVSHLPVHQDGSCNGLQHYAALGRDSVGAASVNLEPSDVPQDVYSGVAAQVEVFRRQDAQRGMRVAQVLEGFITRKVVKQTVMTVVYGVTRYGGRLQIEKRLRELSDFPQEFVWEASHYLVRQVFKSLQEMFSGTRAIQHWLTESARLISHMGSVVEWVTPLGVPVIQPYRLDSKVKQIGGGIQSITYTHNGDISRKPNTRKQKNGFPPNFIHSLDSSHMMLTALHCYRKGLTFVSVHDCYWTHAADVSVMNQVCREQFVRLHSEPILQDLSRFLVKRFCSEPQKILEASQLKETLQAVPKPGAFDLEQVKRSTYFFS
row,Structure (SMILES),IC50 [nM]
1,"Cc1ccccc1-c1cc(=O)oc2nc(N3CCC(F)(F)C3)ccc12 [Example 17, 7-(3,3-difluoropyrrolidin-1-yl)-4-(o-tolyl)-2H-pyrano[2,3-b]pyridin-2-one]",600
2,"Cc1ccccc1-c1cc(=O)oc2nc(N3CCC(F)C3)ccc12 (stereo not shown) [Example 18, 7-(3-fluoropyrrolidin-1-yl)-4-(o-tolyl)-2H-pyrano[2,3-b]pyridin-2-one]",1000
3,"Cc1ccccc1-c1cc(=O)oc2nc(N3CCC3)ccc12 [Example 19, 7-(azetidin-1-yl)-4-(o-tolyl)-2H-pyrano[2,3-b]pyridin-2-one]",300
4,"COC1CN(c2ccc3c(-c4ccccc4C)cc(=O)oc3n2)C1 [Example 20, 7-(3-methoxyazetidin-1-yl)-4-(o-tolyl)-2H-pyrano[2,3-b]pyridin-2-one]",2000
5,"O=c1cc(-c2ccc(F)cc2Cl)c2ccc(N3CCOCC3)nc2o1 [Example 21, 4-(2-chloro-4-fluorophenyl)-7-morpholino-2H-pyrano[2,3-b]pyridin-2-one]",3000
6,"CC(=O)NC1CCN(c2ccc3c(-c4ccccc4C)cc(=O)oc3n2)C1 (stereo not shown) [Example 22, N-(1-(2-oxo-4-(o-tolyl)-2H-pyrano[2,3-b]pyridin-7-yl)pyrrolidin-3-yl)acetamide]",3000
7,"COC(=O)CN(C)c1ccc2c(-c3ccccc3C)cc(=O)oc2n1 [Example 35, methyl N-methyl-N-(2-oxo-4-(o-tolyl)-2H-pyrano[2,3-b]pyridin-7-yl)glycinate]",200
8,"CNC(=O)CN(C)c1ccc2c(-c3ccccc3C)cc(=O)oc2n1 [Example 39, N-methyl-2-[methyl-[4-(o-tolyl)-2-oxo-pyrano[2,3-b]pyridin-7-yl]amino]acetamide]",1000
9,"Cc1ccccc1-c1cc(=O)oc2nc(N(C)CCC(=O)O)ccc12 [Example 41, 3-[methyl-[4-(o-tolyl)-2-oxo-pyrano[2,3-b]pyridin-7-yl]amino]propanoic acid]",7000
10,Cc1ccccc1-c1cc(=O)oc2nc(N(C)CCC(N)=O)ccc12 [Example 42],3000
11,CNC(=O)CCN(C)c1ccc2c(-c3ccccc3C)cc(=O)oc2n1 [Example 43],7000
12,"Cc1cccc(C)c1-c1cc(=O)oc2nc(N3CCC[C@H]3C(=O)O)ccc12 [Example 50, (4-(2,6-dimethylphenyl)-2-oxo-2H-pyrano[2,3-b]pyridin-7-yl)-L-proline]",400
13,"Cc1cccc(C)c1-c1cc(=O)oc2nc(N3CCC[C@@H]3C(=O)O)ccc12 [Example 51, (4-(2,6-dimethylphenyl)-2-oxo-2H-pyrano[2,3-b]pyridin-7-yl)-D-proline]",100
14,"Cc1cccc(C)c1-c1cc(=O)oc2nc(N(C)CC(N)=O)ccc12 [Example 56, 2-((4-(2,6-dimethylphenyl)-2-oxo-2H-pyrano[2,3-b]pyridin-7-yl)(methyl)amino)acetamide]",200
15,"Cc1ccccc1-c1cc(=O)oc2nc(N(C)CC(=O)NCC(=O)O)ccc12 [Example 60, N-methyl-N-(2-oxo-4-(o-tolyl)-2H-pyrano[2,3-b]pyridin-7-yl)glycylglycine]",6000

# More lines, now with the values ahead:
row,IC50 [nM],Structure (SMILES)
1,1000,"Cc1ccccc1-c1cc(=O)oc2nc(N(C)CC(=O)O)ccc12 [Example 36, N-methyl-N-(2-oxo-4-(o-tolyl)-2H-pyrano[2,3-b]pyridin-7-yl)glycine]"
2,500,"Cc1ccccc1-c1cc(=O)oc2nc(N(C)CC(N)=O)ccc12 [Example 40, 2-[methyl-[4-(o-tolyl)-2-oxo-pyrano[2,3-b]pyridin-7-yl]amino]acetamide]"
3,5000,"CN(CC(=O)O)c1ccc2c(-c3ccc(F)cc3Cl)cc(=O)oc2n1 [Example 44, N-(4-(2-chloro-4-fluorophenyl)-2-oxo-2H-pyrano[2,3-b]pyridin-7-yl)-N-methylglycine]"
4,1000,"CNC(=O)CN(C)c1ccc2c(-c3ccc(F)cc3Cl)cc(=O)oc2n1 [Example 45, 2-((4-(2-chloro-4-fluorophenyl)-2-oxo-2H-pyrano[2,3-b]pyridin-7-yl)(methyl)amino)-N-methylacetamide]"
5,2000,"CN(CC(N)=O)c1ccc2c(-c3ccc(F)cc3Cl)cc(=O)oc2n1 [Example 46, 2-((4-(2-chloro-4-fluorophenyl)-2-oxo-2H-pyrano[2,3-b]pyridin-7-yl)(methyl)amino)acetamide]"
6,57000,"CNC(=O)CCN(C)c1ccc2c(-c3ccc(F)cc3Cl)cc(=O)oc2n1 [Example 47, 3-((4-(2-chloro-4-fluorophenyl)-2-oxo-2H-pyrano[2,3-b]pyridin-7-yl)(methyl)amino)-N-methylpropanamide]"
7,10000,"CN(CCC(N)=O)c1ccc2c(-c3ccc(F)cc3Cl)cc(=O)oc2n1 [Example 52, 3-((4-(2-chloro-4-fluorophenyl)-2-oxo-2H-pyrano[2,3-b]pyridin-7-yl)(methyl)amino)propanamide]"
8,1000,"COC(=O)[C@H](C)N(C)c1ccc2c(-c3ccc(F)cc3Cl)cc(=O)oc2n1 [Example 53, methyl N-(4-(2-chloro-4-fluorophenyl)-2-oxo-2H-pyrano[2,3-b]pyridin-7-yl)-N-methyl-L-alaninate]"
9,200,"COC(=O)[C@@H](C)N(C)c1ccc2c(-c3ccc(F)cc3Cl)cc(=O)oc2n1 [Example 54, methyl N-(4-(2-chloro-4-fluorophenyl)-2-oxo-2H-pyrano[2,3-b]pyridin-7-yl)-N-methyl-D-alaninate]"
10,12000,"CN(CCC(=O)O)c1ccc2c(-c3ccc(F)cc3Cl)cc(=O)oc2n1 [Example 55, 3-((4-(2-chloro-4-fluorophenyl)-2-oxo-2H-pyrano[2,3-b]pyridin-7-yl)(methyl)amino)propanoic acid]"
